Assay results taken from patent US5102873A (priority 1989, dated 1992).
≈ marks a conversion by molar mass, not a printed value. Where “and” joins values, the source holds several entries; their conditions need not be identical. Identical values can stand only once.

Experiments:
vaccinia virus = assay: microbe, parasite or virus in culture; type: cell-based; details: for IC50: Orthopoxvirus vaccinia, Vero, read-out: ID50 (inhibitory dose 50; 50% reduction in virus replication), vaccinia virus in Vero cells, called MIC50; for TI (therapeutic index, MTC/ID50) / Virus Rating (VR): Vero cells; for TI (therapeutic index, MTC/ID50): TI>50 indicates a useful compound; for Virus Rating (VR): VR >=1.0 significant, 0.5-0.9 marginal, <0.5 inactive, repeat lines are repeat tests
[1] = Cytotoxicity of test compound to Vero host cells (minimum toxic concentration); details: monkey, MTC (minimum toxic concentration), footnote: lowest concentration giving 50% reduction in percent survival of viable host cells

In the case of Nc1ncnc2c1ncn2[C@@H]1O[C@H](CO)[C@@H](O)[C@@H]1O [AraA, 9-β-D-arabinofuranosyladenine, reference compound], the IC50 (vaccinia virus) is reported as 2 µg/mL (≈ 7.48 µM), the “TI (therapeutic index, MTC/ID50)” value (vaccinia virus) is reported as 13.3 and the “Virus Rating (VR)” value (vaccinia virus) is reported as 1.0. For the same compound, the MCC [1] was > 320 µg/mL.
In the case of Nc1c2ncn([C@@H]3O[C@H](CO)[C@@H](O)[C@H]3O)c2nc[n+]1[O-] [Compound 1a, Adenosine-N^1 -oxide], the IC50 (vaccinia virus) is reported as 0.32 µg/mL (≈ 1.13 µM), the “TI (therapeutic index, MTC/ID50)” value (vaccinia virus) is reported as 312 and the “Virus Rating (VR)” value (vaccinia virus) is reported as > 2.4. It also gave an MCC [1] of 100 µg/mL.
In the case of Nc1c2ncn([C@H]3C[C@H](O)[C@@H](CO)O3)c2nc[n+]1[O-] [Compound 1b, 2'-Deoxyadenosine-N^1-oxide], the IC50 (vaccinia virus) is reported as 3.06 µg/mL (≈ 11.5 µM), the “TI (therapeutic index, MTC/ID50)” value (vaccinia virus) is reported as 104 and the “Virus Rating (VR)” value (vaccinia virus) is reported as > 1.7. The MCC [1] was > 320 µg/mL.
In the case of CNc1c2ncn([C@@H]3O[C@H](CO)[C@@H](O)[C@H]3O)c2nc[n+]1[O-] [Compound 1c, 6-Methylamino-9-β-D-ribofuranosylpurine-N^1-oxide], the IC50 (vaccinia virus) is reported as 0.45 µg/mL (≈ 1.51 µM), the “TI (therapeutic index, MTC/ID50)” value (vaccinia virus) is reported as 708 and the “Virus Rating (VR)” value (vaccinia virus) is reported as > 2.4. The MCC [1] was 320 µg/mL.
In the case of Cc1cccc(COn2cnc3c(ncn3[C@@H]3O[C@H](CO)[C@@H](O)[C@H]3O)c2=N)c1.[O-][Cl+3]([O-])([O-])O [Compound 2a, 1-(3-Methylbenzyloxy)adenosine, perchloric acid salt], the IC50 (vaccinia virus) is reported as 0.41 µg/mL, the “TI (therapeutic index, MTC/ID50)” value (vaccinia virus) is reported as 781 and 487 and the “Virus Rating (VR)” value (vaccinia virus) is reported as > 2.4. For the same compound, the MCC [1] was > 320 µg/mL.
With Cc1cc(C)cc(COn2cnc3c(ncn3[C@@H]3O[C@H](CO)[C@@H](O)[C@H]3O)c2=N)c1.[O-][Cl+3]([O-])([O-])O [Compound 2aa, 1-(3,5-Dimethylbenzyloxy)adenosine, perchloric acid salt] the IC50 (vaccinia virus) was 0.45 µg/mL, the “TI (therapeutic index, MTC/ID50)” value (vaccinia virus) was 710 and > 1000 and the MCC [1] was 320 µg/mL.
In the case of Cc1ccc(COn2cnc3c(ncn3[C@@H]3O[C@H](CO)[C@@H](O)[C@H]3O)c2=N)cc1.[O-][Cl+3]([O-])([O-])O [Compound 2b, 1-(4-Methylbenzyloxy)adenosine, perchloric acid salt], the IC50 (vaccinia virus) is reported as 0.11 µg/mL, the “TI (therapeutic index, MTC/ID50)” value (vaccinia virus) is reported as 917 and the “Virus Rating (VR)” value (vaccinia virus) is reported as 2.4. The MCC [1] was 100 µg/mL.
With Cc1ccc(C)c(COn2cnc3c(ncn3[C@@H]3O[C@H](CO)[C@@H](O)[C@H]3O)c2=N)c1.[O-][Cl+3]([O-])([O-])O [Compound 2bb, 1-(2,5-Dimethylbenzyloxy)adenosine, perchloric acid salt] the IC50 (vaccinia virus) was 0.38 µg/mL, the “TI (therapeutic index, MTC/ID50)” value (vaccinia virus) was > 850 and > 1350 and the MCC [1] was 320 µg/mL.
In the case of Cc1ccccc1COn1cnc2c(ncn2[C@@H]2O[C@H](CO)[C@@H](O)[C@H]2O)c1=N.[O-][Cl+3]([O-])([O-])O [Compound 2c, 1-(2-Methylbenzyloxy)adenosine, perchloric acid salt], the IC50 (vaccinia virus) is reported as 0.32 µg/mL, the “TI (therapeutic index, MTC/ID50)” value (vaccinia virus) is reported as 1000 and the “Virus Rating (VR)” value (vaccinia virus) is reported as > 2.4. The MCC [1] was > 320 µg/mL.
For Cc1ccc(COn2cnc3c(ncn3[C@@H]3O[C@H](CO)[C@@H](O)[C@H]3O)c2=N)c(C)c1.[O-][Cl+3]([O-])([O-])O [Compound 2cc, 1-(2,4-Dimethylbenzyloxy)adenosine, perchloric acid salt], the IC50 (vaccinia virus) was 0.08 µg/mL, the “TI (therapeutic index, MTC/ID50)” value (vaccinia virus) was 4110 and 3890 and the “Virus Rating (VR)” value (vaccinia virus) was 2.9. For the same compound, the MCC [1] was 320 µg/mL.
Compound COc1ccc(COn2cnc3c(ncn3[C@@H]3O[C@H](CO)[C@@H](O)[C@H]3O)c2=N)cc1.[O-][Cl+3]([O-])([O-])O [Compound 2d, 1-(4-Methoxybenzyloxy)adenosine, perchloric acid salt] has an IC50 (vaccinia virus) of 0.01 µg/mL.
For CC(On1cnc2c(ncn2[C@@H]2O[C@H](CO)[C@@H](O)[C@H]2O)c1=N)c1ccccc1.[O-][Cl+3]([O-])([O-])O (some centres unmarked) [Compound 2f, 1-(1-Phenylethyloxy)adenosine, perchloric acid salt], the IC50 (vaccinia virus) was < 0.32 µg/mL.
In the case of N#Cc1ccccc1COn1cnc2c(ncn2[C@@H]2O[C@H](CO)[C@@H](O)[C@H]2O)c1=N.[O-][Cl+3]([O-])([O-])O [Compound 2w, 1-(2-Cyanobenzyloxy)adenosine, perchloric acid salt], the MCC [1] is reported as > 320 µg/mL.
